The source made the active and inactive calls. The rule behind the calls is not given here.
Legend:
[1] = test system: HL-60; test: Induction of apoptosis in human HL60 cells assessed as mitochondrial depolarization at 10 uM after 24 hrs by rhodamine-123 as fluorescent dye based flow cytometry; type: functional
[2] = test system: HL-60; test: Induction of apoptosis in human HL60 cells assessed as increase in apoptotic cells after 24 hrs by acridine orange/ethidium bromide staining based fluorescence microscopy; type: functional, cell-based
[3] = Cytotoxicity against human HL60 cells after 72 hrs by MTT assay; type: functional, HL-60
[4] = test system: HL-60; test: Induction of cell cycle arrest in human HL60 cells assessed as accumulation at G0/G1 phase at 5 uM after 24 hrs by annexin V/propidium iodide staining based flow cytometry (reference value: 45.81 +/- 3.16 %); type: functional
[5] = test system: HL-60; test: Induction of apoptosis in human HL60 cells assessed as increase in necrotic cells at 10 uM after 24 hrs by acridine orange/ethidium bromide staining based fluorescence microscopy; type: functional
[6] = test system: HL-60; test: Induction of apoptosis in human HL60 cells assessed as mitochondrial depolarization after 24 hrs by rhodamine-123 as fluorescent dye based flow cytometry; type: functional, cell-based
[7] = Cytotoxicity against human SF295 cells after 72 hrs by MTT assay; type: functional, SF-295
[8] = test system: HL-60; test: Induction of apoptosis in human HL60 cells assessed as chromatolysis at 2.5 to 10 uM after 24 hrs by giemsa staining-based light microscopy analysis; type: functional, cell-based
[9] = test system: HL-60; test: Induction of cell cycle arrest in human HL60 cells assessed as accumulation at G0/G1 phase at 10 uM after 24 hrs by annexin V/propidium iodide staining based flow cytometry (reference value: 45.81 +/- 3.16 %); type: functional
[10] = test system: HL-60; test: Induction of apoptosis in human HL60 cells assessed as phosphatidylserine externalization at 2.5 uM after 24 hrs by annexin V/propidium iodide staining based flow cytometry; type: functional
[11] = test system: HL-60; test: Induction of apoptosis in human HL60 cells assessed as intranuclear vacuoles at 2.5 to 10 uM after 24 hrs by giemsa staining-based light microscopy analysis; type: functional, cell-based
[12] = Cytotoxicity against human SF295 cells assessed as reduction in cell viability at 25 ug/mL after 72 hrs by MTT assay; type: functional, SF-295
[13] = test system: HL-60; test: Induction of apoptosis in human HL60 cells assessed as increase in apoptotic cells at 10 uM after 24 hrs by acridine orange/ethidium bromide staining based fluorescence microscopy; type: functional
[14] = test system: HL-60; test: Induction of apoptosis in human HL60 cells assessed as decrease in viable cells at 10 uM after 24 hrs by acridine orange/ethidium bromide staining based fluorescence microscopy; type: functional
[15] = test system: HL-60; test: Induction of apoptosis in human HL60 cells assessed as chromatin condensation at 2.5 to 10 uM after 24 hrs by giemsa staining-based light microscopy analysis; type: functional, cell-based
[16] = test system: HL-60; test: Induction of cell cycle arrest in human HL60 cells assessed as accumulation at G2/M phase at 2.5 uM after 24 hrs by annexin V/propidium iodide staining based flow cytometry (reference value: 19.04 +/- 1.10 %); type: functional
[17] = test system: HL-60; test: Induction of apoptosis in human HL60 cells assessed as mitochondrial depolarization at 2.5 uM after 24 hrs by rhodamine-123 as fluorescent dye based flow cytometry; type: functional
[18] = test system: HL-60; test: Induction of apoptosis in human HL60 cells assessed as increase in necrotic cells after 24 hrs by acridine orange/ethidium bromide staining based fluorescence microscopy; type: functional, cell-based
[19] = test system: HL-60; test: Induction of apoptosis in human HL60 cells assessed as phosphatidylserine externalization at 10 uM after 24 hrs by annexin V/propidium iodide staining based flow cytometry; type: functional
[20] = test system: HL-60; test: Induction of apoptosis in human HL60 cells assessed as decrease in viable cells at 2.5 uM after 24 hrs by acridine orange/ethidium bromide staining based fluorescence microscopy; type: functional
[21] = test system: HL-60; test: Induction of apoptosis in human HL60 cells assessed as mitochondrial depolarization at 5 uM after 24 hrs by rhodamine-123 as fluorescent dye based flow cytometry; type: functional
[22] = test system: HL-60; test: Induction of apoptosis in human HL60 cells assessed as decrease in viable cells at 5 uM after 24 hrs by acridine orange/ethidium bromide staining based fluorescence microscopy; type: functional
[23] = Cytotoxicity against human HCT116 cells after 72 hrs by MTT assay; type: functional, HCT-116
[24] = test system: HL-60; test: Induction of apoptosis in human HL60 cells assessed as DNA fragmentation after 24 hrs by annexin V/propidium iodide staining based flow cytometry; type: functional, cell-based
[25] = test system: HL-60; test: Induction of apoptosis in human HL60 cells assessed as reduction in cellular and nuclear volumes at 2.5 to 10 uM after 24 hrs by giemsa staining-based light microscopy analysis; type: functional, cell-based
[26] = test system: HL-60; test: Induction of cell cycle arrest in human HL60 cells assessed as accumulation at sub-G0/G1 phase at 10 uM after 24 hrs by annexin V/propidium iodide staining based flow cytometry (reference value: 6.10 +/- 0.28 %); type: functional
[27] = Cytotoxicity against human OVCAR8 cells after 72 hrs by MTT assay; type: functional, OVCAR-8
[28] = test system: HL-60; test: Induction of cell cycle arrest in human HL60 cells assessed as accumulation at sub-G0/G1 phase at 5 uM after 24 hrs by annexin V/propidium iodide staining based flow cytometry (reference value: 6.10 +/- 0.28 %); type: functional
[29] = test system: HL-60; test: Induction of apoptosis in human HL60 cells assessed as increase in apoptotic cells at 2.5 uM after 24 hrs by acridine orange/ethidium bromide staining based fluorescence microscopy; type: functional
[30] = Cytotoxicity against human HCT116 cells assessed as reduction in cell viability at 25 ug/mL after 72 hrs by MTT assay; type: functional, HCT-116
[31] = test system: HL-60; test: Induction of cell cycle arrest in human HL60 cells assessed as accumulation at G0/G1 phase at 2.5 uM after 24 hrs by annexin V/propidium iodide staining based flow cytometry (reference value: 45.81 +/- 3.16 %); type: functional
[32] = test system: HL-60; test: Induction of cell cycle arrest in human HL60 cells assessed as accumulation at sub-G0/G1 phase at 2.5 uM after 24 hrs by annexin V/propidium iodide staining based flow cytometry (reference value: 6.10 +/- 0.28 %); type: functional
[33] = test system: HL-60; test: Induction of apoptosis in human HL60 cells assessed as decrease in viable cells after 24 hrs by acridine orange/ethidium bromide staining based fluorescence microscopy; type: functional, cell-based
[34] = test system: HL-60; test: Induction of cell cycle arrest in human HL60 cells assessed as accumulation at G2/M phase at 5 uM after 24 hrs by annexin V/propidium iodide staining based flow cytometry (reference value: 19.04 +/- 1.10 %); type: functional
[35] = test system: HL-60; test: Induction of cell cycle arrest in human HL60 cells assessed as accumulation at G2/M phase at 10 uM after 24 hrs by annexin V/propidium iodide staining based flow cytometry (reference value: 19.04 +/- 1.10 %); type: functional
[36] = test system: HL-60; test: Induction of cell cycle arrest in human HL60 cells assessed as accumulation at S phase at 2.5 uM after 24 hrs by annexin V/propidium iodide staining based flow cytometry (reference value: 27.64 +/- 2.15 %); type: functional
[37] = test system: HL-60; test: Induction of apoptosis in human HL60 cells assessed as cytoplasmic budding at 2.5 to 10 uM after 24 hrs by giemsa staining-based light microscopy analysis; type: functional, cell-based
[38] = test system: HL-60; test: Induction of cell cycle arrest in human HL60 cells assessed as accumulation at S phase at 5 uM after 24 hrs by annexin V/propidium iodide staining based flow cytometry (reference value: 27.64 +/- 2.15 %); type: functional
[39] = Cytotoxicity against human OVCAR8 cells assessed as reduction in cell viability at 25 ug/mL after 72 hrs by MTT assay; type: functional, OVCAR-8
[40] = Cytotoxicity against mouse L929 cells after 72 hrs by MTT assay; type: cell-based; settings: read-out: RC50
[41] = test system: HL-60; test: Induction of cell cycle arrest in human HL60 cells assessed as accumulation at S phase at 10 uM after 24 hrs by annexin V/propidium iodide staining based flow cytometry (reference value: 27.64 +/- 2.15 %); type: functional
[42] = test system: HL-60; test: Induction of apoptosis in human HL60 cells assessed as phosphatidylserine externalization at 5 uM after 24 hrs by annexin V/propidium iodide staining based flow cytometry; type: functional
[43] = test system: HL-60; test: Induction of apoptosis in human HL60 cells assessed as increase in apoptotic cells at 5 uM after 24 hrs by acridine orange/ethidium bromide staining based fluorescence microscopy; type: functional
[44] = test system: HL-60; test: Induction of apoptosis in human HL60 cells assessed as chromatin condensation at 0.5 uM after 24 hrs by giemsa staining-based light microscopy analysis; type: functional, cell-based
[45] = test system: HL-60; test: Induction of cell cycle arrest in human HL60 cells assessed as accumulation at S phase at 0.5 uM after 24 hrs by annexin V/propidium iodide staining based flow cytometry (reference value: 27.64 +/- 2.15%); type: functional
[46] = test system: HL-60; test: Induction of cell cycle arrest in human HL60 cells assessed as accumulation at sub-G0/G1 phase at 0.5 uM after 24 hrs by annexin V/propidium iodide staining based flow cytometry (reference value: 6.10 +/- 0.28 %); type: functional
[47] = test system: HL-60; test: Induction of apoptosis in human HL60 cells assessed as nuclear fragmentation at 0.5 uM after 24 hrs by giemsa staining-based light microscopy analysis; type: functional, cell-based
[48] = test system: HL-60; test: Induction of cell cycle arrest in human HL60 cells assessed as accumulation at G0/G1 phase at 0.5 uM after 24 hrs by annexin V/propidium iodide staining based flow cytometry (reference value: 45.81 +/- 3.16%); type: functional
[49] = test system: HL-60; test: Induction of apoptosis in human HL60 cells assessed as cell shrinkage at 0.5 uM after 24 hrs by giemsa staining-based light microscopy analysis; type: functional
[50] = test system: HL-60; test: Induction of cell cycle arrest in human HL60 cells assessed as accumulation at G2/M phase at 0.5 uM after 24 hrs by annexin V/propidium iodide staining based flow cytometry (reference value: 19.04 +/- 1.1%); type: functional

Compound: COc1ccc(Br)cc1C1=C(Br)C(=O)O/C1=C\c1ccc(C(F)(F)F)cc1
- Activity [1]: 68%
- Activity [2]: Dose-dependent effect
- RC50 [3]: 3.58 µM
- Activity [4]: 72.43%
- Activity [5]: 16.7%
- Activity [6]: Dose-dependent effect
- RC50 [7]: 4.9 µM
- Activity [8]: Active
- Activity [9]: 31.64%
- Activity [10]: 16.2%
- Activity [11]: Active
- Activity [12]: 91.06%
- Activity [13]: 71.5%
- Activity [14]: 11.8%
- Activity [15]: Active
- Activity [16]: 5.92%
- Activity [17]: 35.1%
- Activity [18]: Dose-dependent effect
- Activity [19]: 48.1%
- Activity [20]: 67.1%
- Activity [21]: 47%
- Activity [22]: 38.8%
- RC50 [23]: 2.98 µM
- Activity [24]: Dose-dependent effect
- Activity [25]: Active
- Activity [26]: 48.52%
- RC50 [27]: 2.74 µM
- Activity [28]: 23.17%
- Activity [29]: 31.3%
- Activity [30]: 98.22%
- Activity [31]: 72.81%
- Activity [32]: 15.27%
- Activity [33]: Dose-dependent effect
- Activity [34]: 2.86%
- Activity [35]: 9.12%
- Activity [36]: 13.75%
- Activity [37]: Active
- Activity [38]: 12.93%
- Activity [39]: 99.5%
- CC50 at 72 h [40]: > 50 µM
- Activity [41]: 11.81%
- Activity [42]: 33.3%

Compound: O=C1O/C(=C\c2ccc(Br)cc2)C(Cl)=C1Cl
- Activity [1]: 56.2%
- Activity [2]: Dose-dependent effect
- Activity [43]: 24.1%
- RC50 [3]: 3 µM
- Activity [4]: 43.19%
- Activity [5]: 12.7%
- Activity [6]: Dose-dependent effect
- RC50 [7]: 14.68 µM
- Activity [8]: Active
- Activity [9]: 33.59%
- Activity [10]: 9.5%
- Activity [11]: Active
- Activity [12]: 94.12%
- Activity [13]: 46.8%
- Activity [14]: 47.3%
- Activity [15]: Active
- Activity [16]: 7.39%
- Activity [17]: 21.7%
- Activity [18]: Dose-dependent effect
- Activity [19]: 29%
- Activity [21]: 37.1%
- Activity [22]: 17.7%
- RC50 [23]: 8.18 µM
- Activity [24]: Dose-dependent effect
- Activity [25]: Active
- Activity [26]: 51.26%
- RC50 [27]: 13.68 µM
- Activity [28]: 29.63%
- Activity [30]: 98.27%
- Activity [31]: 45.29%
- Activity [32]: 17.5%
- Activity [33]: Dose-dependent effect
- Activity [34]: 4.68%
- Activity [35]: 2.71%
- Activity [36]: 24.16%
- Activity [37]: Active
- Activity [38]: 14.77%
- Activity [39]: 98.99%
- CC50 at 72 h [40]: > 50 µM
- Activity [41]: 7.26%
- Activity [42]: 19%

Compound: COc1cccc2c1C(=O)c1c(O)c3c(c(O)c1C2=O)C[C@@](O)(C(=O)CO)C[C@@H]3O[C@H]1C[C@H](N)[C@H](O)[C@H](C)O1 [DOXORUBICIN]
- RC50 [3]: 0.02 µM
- Activity [44]: Active
- Activity [45]: 15.5%
- RC50 [7]: 0.44 µM
- Activity [46]: 46.25%
- RC50 [23]: 0.04 µM
- RC50 [27]: 0.62 µM
- Activity [47]: Active
- Activity [48]: 33.78%
- Activity [49]: Active
- Activity [50]: 2.59%

From ChEMBL document CHEMBL3779873, “Rubrolide analogues and their derived lactams as potential anticancer agents” (Medchemcomm, 2016)
